Measurements taken from patent publication EP2746253A1, “Novel compounds with skin lightening properties” (Unilever PLC, priority 2012, dated 2014).

Legend:
B16 mouse melanoma cells = assay: Inhibition of pigment (melanin) production in B16 mouse melanoma cells; format: cell-based; conditions: 72 h, 3 days incubation, average of 4 wells, read-out: % of melanin inhibition in B16 mouse melanoma cells assay compared to control, normalised to protein levels
Source text: B16 mouse melanoma cells are widely available for example by purchase from the American Type Culture Collection (ATCC) and are routinely used by those skilled in the art to assay pigment production. The cells make and secrete melanin, a dark pigment, into the medium as the cells approach confluence. Methods for general cell culture may be easily accessed in text books and on-line (eg General Techniques of Cell Culture; M.A. Harrison and I.F. Rae Authors; Cambridge University Press ISBN 052157496X)
B16 mouse melanoma cells were maintained in cell culture and used for tests in antibiotic free Lonza Biowhittaker (BE12-662F) media (50ml fetal bovine serum and 5 ml I-glutamine (Sigma G7513) per 500 ml bottle).
The cells were maintained and grown at 37°C in an atmosphere of 5 % CO2. Trypsin/ethylene diamine tetraacetic acid (EDTA; Sigma T3924) and Dulbeccos Phosphate Buffered Saline (DPBS; Sigma D8537) were used to passage the cells as they approached ≥80 % confluence, diluting the cells by one tenth for maintenance culture.
For the pigment reduction assays, 48 well plates were seeded with 2.5 x 10^4 cells per well in phenol red-free, antibiotic-free medium (Sigma D1145) supplemented with foetal bovine serum and glutamine. Care was taken to make sure less adherent cells were not lost during the seeding process.
The plates were incubated overnight at 37°C/5 % CO2 atmosphere. The media was removed from the plates one-by-one and fresh media containing the test compound or control additions was added to each well. Compounds were prepared as stock solutions at 1000 fold higher concentration than that used for assay in dimethylsulphoxide (DMSO). Control media additions included 0.1 % DMSO, media alone and positive control(s) known to inhibit pigment production such as ketoconazole or 4-ethylresorcinol. The cells were incubated at 37°C/5 % CO2 atmosphere for a further 3 days. Cultures were assessed for melanin secretion into the medium and, as controls for toxicity of the added ingredients, for protein level and metabolic activity. A reduction in metabolic activity or protein levels is indicative of cell toxicity. The most desirable compounds therefore in the assay are those that show melanin production inhibition without loss of metabolic function or reduction in protein levels.
Media was removed from the cell plates and put into storage plates. The plates were sealed until assayed later in the day. Melanin was measured by determining optical density at 450 nm and making a comparison against melanin standards (Sigma M8631) made up anew on each day of testing. The standards used were 1000 µg/ml; 500 µg/ml; 250 µg/ml; 125 µg/ml; 62.5 µg/ml; 31.25 µg/ml; and 15.625 µg/ml.
Without delay, 100 µl of RIPA buffer (Sigma R0278) with protease inhibitor (Sigma S8830- use as per Sigma instructions) was added to the wells and the plates frozen at -20°C until the protein assessment was carried out. For example Pierce BCA Protein Assay (Thermo Scientific # 23225) can be used as per manufacturer's instructions with 10 µl of sample for each replicate.
Control and test melanin values were calculated as the average of results from 4 wells, corrected for protein levels in the cultures. The percent reduction in melanin production was calculated for each compound concentration, setting the melanin production of control incubations (vehicle alone) at 100%. Compound concentrations causing > 20% loss of WST activity are considered toxic and not considered to be effective melanin inhibitors. A compound causing > 10% reduction of melanin production into the medium was considered to be an inhibitor. Table 1: B16 mouse melanoma cells assay results for compounds of the first aspect of the invention

Melanoderms™ = assay: Pigment production by Living Skin Equivalents (Melanoderms); format: cell-based; conditions: Homo sapiens, 336 h, 14 days, normalized to protein levels, read-out: Inhibition of melanin production (%) in Melanoderms™ compared to control
Source text: So called reconstructed pigmented 'skin' cultures containing keratinocytes and melanocytes are commercially available and for example can be purchased from MatTek Corp, 200, Homer Avenue, Ashland, MA, USA, under the trade name Melanoderm™. Melanoderms™ (catalogue reference MEL-300) containing melanocytes from […] donor skin were maintained in EPI-100-NMM113 media following the manufacturer's instructions and using standard methods for the maintenance of cultured mammalian cells under aseptic conditions. The Melanoderm™ cultures were treated with test agents for a total of 14 days. During the 14 day culture period the melanocytes in the Melanoderm™ cultures synthesise melanin in specialised vesicular structures called melanosomes. The pigmented melanosomes are transferred to the adjacent keratinocytes and the transferred-melanosomes tend to accumulate over the nucleus of the keratinocytes. This process is the same as occurs in skin in vivo and accordingly the Melanoderm™ culture is considered to be a very good test 'skin tissue' to mimic the effect of the skin pigmentation process in vivo. A compound that leads to a reduction in melanin production in the Melanoderm™ culture over 14 days by 10 % or more is considered to have a positive pigment reducing effect. It is important that the reduction in pigment occurs without substantive loss of cell viability such that the inhibitory effect of the test compound is due to its biological function rather than due to cell toxicity.
Culture media changes and re-dosing of compounds at selected concentrations took place every 2 or 3 days during the test period. Melanoderm™ cultures were also treated with control materials including the vehicle (dimethylsulphoxide; DMSO) used to dissolve the test material and a positive control material known to lead to the synthesis of reduced amounts of melanin in the cultures. Ketoconazole and/or 4-ethylresorcinol were used as positive controls. After 14 days culture, transmitted-light microscopy images were captured for every culture using a Leica DM IL microscope at x20 magnification.
The cell viability of the cultures was assessed using the so called WST-1 (Water Soluble Tetrazolium Salt -1) assay purchased from Roche Applied Science and following the manufacturer's instructions. The stable tetrazolium salt WST-1 is cleaved to a soluble formazan dye by a complex cellular mechanism that occurs primarily at the cell surface. This bioreduction is largely dependent on the glycolytic production of NADPH in viable cells. Therefore, the amount of soluble formazan dye formed in the culture medium directly correlates to the number of metabolically active cells in the culture. Cultures were incubated with WST-1 in the medium for 1 hour and production of formazan measured at 450 nm using a spectrophotometer plate reader, eg a BMG Labtech FLUOstar plate reader. Cultures were considered 'viable' if they generated greater than 80 % of the control value of formazan product. Subsequently the culture was washed briefly in phosphate buffer solution (PBS) and total melanin and protein extracted together from each culture using 250 µl Solvable (trademark, Perkin Elmer product 6NE9100) reagent at 60°C overnight as recommended by the manufacturer. The total protein content using a sample of the extracts was determined using the so called BCA (bicinchoninic acid) assay. The BCA assay may be purchased from Pierce Chemical Company and conducted following the manufacturer's instructions. Melanin was determined by measuring the absorbance at 485 nm, for example using a BMG Labtech FLUOstar plate reader. The amount of melanin extracted from each culture was determined by reference to a standard synthetic-melanin curve (Sigma Aldrich Chemical Co; catalogue reference M8631).
Melanin levels in each culture were expressed as values normalised to the amount of protein in the cultures and compared to control vehicle treated cultures. […]

SMILES: COC(=O)c1cccc(CN/C(N)=N/N=C/c2csc3ccccc23)c1 [NC-0525, (E)-1-amino-1-[(2E)-(1-benzothiophen-3-ylmethylidene)hydrazinylidene]-N-[3-(methoxycarbonyl)benzyl]methanaminium iodide]
- inhibition at 1 µM (B16 mouse melanoma cells): 18%
- inhibition at 5 µM (B16 mouse melanoma cells): 100%

SMILES: COc1ccc(CN/C(N)=N/N=C/c2csc3ccccc23)cc1 [NC-0528, (E)-1-amino-1-[(2E)-(1-benzothiophen-3-ylmethylidene)hydrazinylidene]-N-(4-methoxybenzyl)methanaminium iodide]
- inhibition at 1 µM (B16 mouse melanoma cells): 3%
- inhibition at 5 µM (B16 mouse melanoma cells): 73%

SMILES: COC(=O)c1ccc(CN/C(N)=N/N=C/c2csc3ccccc23)cc1 [NC-0510, (E)-1-amino-1-[(2E)-(1-benzothiophen-3-ylmethylidene)hydrazinylidene]-N-[4-(methoxycarbonyl)benzyl]methanaminium iodide]
- inhibition at 1 µM (B16 mouse melanoma cells): 17%
- inhibition at 5 µM (B16 mouse melanoma cells): 29%
- inhibition at 5 µM (Melanoderms™): 18%
- inhibition at 10 µM (Melanoderms™): 19%

SMILES: Cc1ccc2[nH]c3c(c2c1)CCC/C3=N/N=C(\N)NCc1ccc(F)cc1 [NC-0536, (E)-1-amino-N-(4-fluorobenzyl)-1-{(2Z)-[6-methyl-2,3,4,9-tetrahydro-1H-carbazol-1-ylidene]hydrazinylidene}methanaminium iodide]
- inhibition at 1 µM (B16 mouse melanoma cells): 24%
- inhibition at 5 µM (B16 mouse melanoma cells): 8%

SMILES: N/C(=N\N=C\c1ccc(-c2ccncc2)cc1)NCc1ccc(O)cc1 [NC-0498, (E)-1-amino-N-(4-hydroxybenzyl)-1-{(2E)-[4-(pyridin-4-yl)benzylidene]hydrazinylidene}methanaminium iodide]
- inhibition at 1 µM (B16 mouse melanoma cells): 0%
- inhibition at 5 µM (B16 mouse melanoma cells): 33%
- inhibition at 10 µM (Melanoderms™): 53%

SMILES: Cc1ccc2[nH]c3c(c2c1)CCC/C3=N/N=C(\N)NCc1c(Cl)cccc1Cl [NC-0537, (E)-1-amino-N-(2,6-dichlorobenzyl)-1-{(2Z)-[6-methyl-2,3,4,9-tetrahydro-1H-carbazol-1-ylidene]hydrazinylidene}methanaminium iodide]
- inhibition at 1 µM (B16 mouse melanoma cells): 51%
- inhibition at 5 µM (B16 mouse melanoma cells): 37%

SMILES: N/C(=N\N=C\c1csc2ccccc12)NCc1ccc(F)cc1 [NC-0517, (E)-1-amino-1-[(2E)-(1-benzothiophen-3-ylmethylidene)hydrazinylidene]-N-(4-fluorobenzyl)methanaminium iodide]
- inhibition at 1 µM (B16 mouse melanoma cells): 32%
- inhibition at 5 µM (B16 mouse melanoma cells): 35%
- inhibition at 5 µM (Melanoderms™): 4%
- inhibition at 10 µM (Melanoderms™): 20%

SMILES: N/C(=N\N=C\c1cc2ccccc2o1)NCc1ccccc1 [NC-0519, (E)-1-amino-1-[(2E)-(1-benzofuran-2-ylmethylidene)hydrazinylidene]-N-benzylmethanaminium iodide]
- inhibition at 1 µM (B16 mouse melanoma cells): 71%
- inhibition at 5 µM (B16 mouse melanoma cells): 71%
- inhibition at 5 µM (Melanoderms™): 40%
- inhibition at 10 µM (Melanoderms™): 47%

SMILES: COC(=O)c1ccc(CN/C(N)=N/N=C/c2cc3ccccc3o2)cc1 [NC-0521, (E)-1-amino-1-[(2E)-(1-benzofuran-2-ylmethylidene)hydrazinylidene]-N-[4-(methoxycarbonyl)benzyl]methanaminium iodide]
- inhibition at 1 µM (B16 mouse melanoma cells): 46%
- inhibition at 5 µM (B16 mouse melanoma cells): 64%
- inhibition at 5 µM (Melanoderms™): 35%

SMILES: N/C(=N\N=C\c1csc2ccccc12)NCc1ccc(Cl)c(Cl)c1 [NC-0515, (E)-1-amino-1-[(2E)-(1-benzothiophen-3-ylmethylidene)hydrazinylidene]-N-(3,4-dichlorobenzyl)methanaminium iodide]
- inhibition at 1 µM (B16 mouse melanoma cells): 0%
- inhibition at 5 µM (B16 mouse melanoma cells): 54%

SMILES: COc1ccc(CN/C(N)=N/N=C/c2cc3ccccc3o2)cc1 [NC-0531, (E)-1-amino-1-[(2E)-(1-benzofuran-2-ylmethylidene)hydrazinylidene]-N-(4-methoxybenzyl)methanaminium iodide]
- inhibition at 1 µM (B16 mouse melanoma cells): 39%
- inhibition at 5 µM (B16 mouse melanoma cells): 39%
- inhibition at 5 µM (Melanoderms™): 35%
- inhibition at 10 µM (Melanoderms™): 40%

SMILES: COC(=O)c1ccc(CN/C(N)=N/N=C/c2ccc3ccccc3n2)cc1 [NC-0511, (E)-1-amino-N-[4-(methoxycarbonyl)benzyl]-1-[(2E)-(quinolin-2-ylmethylidene)hydrazinylidene]methanaminium iodide]
- inhibition at 1 µM (B16 mouse melanoma cells): 54%
- inhibition at 5 µM (B16 mouse melanoma cells): 100%
- inhibition at 5 µM (Melanoderms™): 27%
- inhibition at 10 µM (Melanoderms™): 19%

SMILES: COC(=O)c1ccc(CN/C(N)=N/N=C/c2cc3ccccc3s2)cc1 [NC-0522, (E)-1-amino-1-[(2E)-(1-benzothiophen-2-ylmethylidene)hydrazinylidene]-N-[4-(methoxycarbonyl)benzyl]methanaminium iodide]
- inhibition at 1 µM (B16 mouse melanoma cells): 59%
- inhibition at 5 µM (B16 mouse melanoma cells): 53%
- inhibition at 5 µM (Melanoderms™): 34%
- inhibition at 10 µM (Melanoderms™): 31%
